Like-named read-outs stand apart in the source and are kept apart here. Marks after values point to notes of the source that are not given here.
Legend:
[1] = target: T1, pancreatic bovine trypsin (Bos taurus, UniProt P00760); assay: Inhibition of trypsin induced proteolysis in vitro; format: biochemical; conditions: for inhibition at 100 µM: read-out: % Trypsin Inh.; for IC50: read-out: IC50 μM Trypsin Inh.; for inhibition at 100 µM / % Trypsin Inh.: % inhibition at 100 μM
T1 construct: purchased Sigma Chemical, Co. (St. Louis, MO, USA)
T1 sequence (P00760 24-246): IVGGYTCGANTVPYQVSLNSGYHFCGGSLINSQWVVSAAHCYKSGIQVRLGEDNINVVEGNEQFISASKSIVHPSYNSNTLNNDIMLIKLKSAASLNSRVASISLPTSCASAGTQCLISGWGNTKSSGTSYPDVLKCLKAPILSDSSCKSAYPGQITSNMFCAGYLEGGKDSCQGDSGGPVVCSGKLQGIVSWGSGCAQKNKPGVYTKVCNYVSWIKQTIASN
Excerpt: All chemicals, solvents, chemical and biochemical reagents were of analytical grade and purchased from commercial sources (Merck, Merck KGaA, Darmstadt, Germany, Fluka Sigma-Aldrich Laborchemikalien GmbH, Hannover, Germany, Alfa Aesar, Karlsruhe, Germany and Sigma, St. Louis, MO, USA). Soybean lipoxygenase, pancreatic bovine trypsin, sodium linoleate, free radical DPPH and 2,2-azinobis-2-methyl-propanimidamine HCl (AAPH) were obtained from Sigma Chemical, Co. (St. Louis, MO, USA), carrageenin, type K, was commercially available. All starting materials were obtained from commercial sources and used without further purification.
The test was carried out according to a modified Kunitz method. Bovine albumin was used as substrate for trypsin. The reaction mixture consisted of 0.075 mg/mL trypsin (200 μL) and 780 μL of phosphate buffer pH 7.6 (including the tested compounds (20 μL in DMSO, final concentration 100 μM) preincubated at 37 °C for 20 min and then 1 mL of albumin (stock solution 6 g/100 mL in phosphate buffer 0.1 M, pH 7.6) was added and incubated at 37 °C for 30 min. After the incubation 1 mL of 5% trichloroacetic acid was added to the incubated solution to stop the enzyme’s reaction and allowed to set at room temperature for 1 h. Then the solution was filtered by filter paper and the absorption of the filtered solution was measured at 280 nm. Salicylic acid was used as a reference compound (Table 1).

[2] = system: acetic acid-induced writhing; assay: Antinociceptive screen (writhing test); format: in vivo, Wistar rats; conditions: i.p. 30 min before 0.6% acetic acid, writhes counted over 30 min; for inhibition in vivo at 0.01 mmol/0.1 kg: Rattus norvegicus, ip, 0.5 h, read-out: % ANA (in vivo analgesic-antinociceptive activity)
Protocol: Anti-inflammatory tests were conducted on Fisher-344 inbred rats of ca. 200 g body weight whereas antinociception and motor and sensory functions after sciatic nerve crash were performed on Wistar rats. Both sexes were used. Females pregnant were excluded. Each group was composed of 6 animals. The animals, which have been bred in our laboratory, were housed under standard conditions and received a diet of commercial food pellets and water ad libitum during the maintenance. Our studies were carried out in accordance with recognised guidelines on animal experimentation.
[…] Controls received the liquid vehicle only. All the in vivo experiments were repeated at least in triplicate and were subjected to statistic analysis using the student’s t-test.
The writhing reflex was used. The test compounds were administered i.p. 30 min prior to the i.p. administration of 1 mL/100 g body weight of 0.6% acetic acid. […] After 5 min, the number of stretches characterized by repeated contractions of the abdominal musculature accompanied by extension of the hind limbs was counted every 5 min for the next 30 min. […] The % antinociceptive activity (a:a) was calculated as: % a:a = (n − n'/n) × 100 (a: a analgesic activity, n average number of writhes of control group, n' average number in the test group).

[3] = target: T2, soybean lipoxygenase (Glycine max, UniProt P08170); assay: Soybean lipoxygenase inhibition in vitro; format: biochemical; conditions: for inhibition at 100 µM: read-out: % LOX Inh.
T2 construct: purchased Sigma Chemical, Co. (St. Louis, MO, USA)
T2 sequence (P08170 1-839): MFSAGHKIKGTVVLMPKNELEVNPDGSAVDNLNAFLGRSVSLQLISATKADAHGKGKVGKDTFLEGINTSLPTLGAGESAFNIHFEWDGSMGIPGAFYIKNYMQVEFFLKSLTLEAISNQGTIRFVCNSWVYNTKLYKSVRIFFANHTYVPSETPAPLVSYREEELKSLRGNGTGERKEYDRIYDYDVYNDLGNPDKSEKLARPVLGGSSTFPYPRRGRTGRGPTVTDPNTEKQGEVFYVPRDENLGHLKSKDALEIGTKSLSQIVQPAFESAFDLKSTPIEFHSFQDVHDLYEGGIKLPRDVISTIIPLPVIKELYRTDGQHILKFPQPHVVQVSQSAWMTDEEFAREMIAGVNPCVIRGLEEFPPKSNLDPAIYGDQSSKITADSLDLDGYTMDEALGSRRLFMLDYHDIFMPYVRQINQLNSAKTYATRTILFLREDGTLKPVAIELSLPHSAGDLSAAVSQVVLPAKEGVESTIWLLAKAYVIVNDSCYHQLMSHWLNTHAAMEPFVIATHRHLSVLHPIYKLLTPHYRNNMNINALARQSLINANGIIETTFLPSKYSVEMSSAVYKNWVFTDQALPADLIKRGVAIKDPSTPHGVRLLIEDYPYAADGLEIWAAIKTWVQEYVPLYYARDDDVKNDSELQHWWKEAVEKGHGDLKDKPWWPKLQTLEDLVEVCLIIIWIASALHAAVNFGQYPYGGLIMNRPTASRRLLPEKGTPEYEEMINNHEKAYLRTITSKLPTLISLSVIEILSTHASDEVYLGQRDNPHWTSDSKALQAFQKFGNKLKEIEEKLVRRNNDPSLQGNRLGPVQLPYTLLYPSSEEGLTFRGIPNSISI
Protocol: DMSO solution of the tested compound was incubated with sodium linoleate (0.1 mM) and 0.2 mL of soybean lipoxygenase solution (1/9 × 10^−4 w/v in saline) in buffer pH 9 (tris) and at room temperature. […] The results are given in Table 1 expressed as IC50 values or % inhibition at 100 μM.

[4] = Inhibition of linoleic acid lipid peroxidation (AAPH); conditions: % inhibition at 100 μM; pH 7.4, 37 °C
Protocol: Production of conjugated diene hydroperoxide by oxidation of sodium linoleate in an aqueous dispersion is monitored at 234 nm. AAPH is used as a free radical initiator [12, 24]. Ten microlitres of the 16 mM sodium linoleate solution was added to the UV cuvette containing 930 μL of 0.05 M phosphate buffer, pH 7.4 prethermostated at 37 °C. The oxidation reaction was initiated at 37 °C under air by the addition of 40 mM AAPH solution (50 μL). Ten μL of the tested compounds were added in the mixture. Lipid oxidation was measured in the presence of the same level of DMSO. The rate of oxidation at 37 °C was monitored by recording the increase in absorption at 234 nm caused by conjugated diene hydroperoxides. The results were compared to the appropriate standard inhibitor trolox (63%) (Table 1).

[5] = Lipophilicity as RM values by RP-TLC; format: physicochemical; conditions: methanol/water 70/30, 24 °C, average of at least five measurements
Excerpt: Since lipophilicity is a significant physicochemical property determining distribution, bioavailability, metabolic activity and elimination, we tried to determine experimentally the lipophilicity of the new substances by a RPTLC method as RM values (Table 1) and to compare them with the corresponding theoretically calculated clog p values in n-octanol-buffer. This is considered to be a reliable, fast and convenient method for expressing lipophilicity. Lipophilicity (Table 2), was theoretically calculated as Clog p values in n-octanol-buffer by the CLOGP Programme of Biobyte Corp..
Reversed phase TLC (RP-TLC) was performed on silica gel plates impregnated with 5% (v/v) liquid paraffin in light petroleum ether. The mobile phase was a methanol/water mixture (70/30, v/v). The plates were developed in closed chromatography tanks saturated with the mobile phase at 24 °C. Spots were detected under UV light. RM values were determined from the corresponding Rf values (from five individual measurements) using the equation RM = log [(1/Rf) − 1] (Table 1).

[6] = bovine albumin substrate, pH 7.6, 37 °C
[7] = sodium linoleate 0.1 mM, tris buffer pH 9, room temperature, read-out: IC50 μM LOX Inh.
[8] = sodium linoleate 0.1 mM, tris buffer pH 9, room temperature

SMILES	inhibition in vivo at 0.01 mmol/0.1 kg [2] [%]	IC50 [3] [µM]	AAPH % (% inhibition of lipid peroxidation) [4] [%]	IC50 [1, 6] [µM]	RM (±S.D.) [5]	also measured
O=c1ccc2ccccc2o1 [Coumarin, reference compound]	–	–	–	–	–	inhibition at 100 µM [1]: 13%
CC(=O)Nc1ccc(OC(=O)/C=C/c2ccc(OCc3ccc(Br)cc3)cc2)cc1 [Compound 3a, (E)-4-Acetamidophenyl 3-(4-((4-bromobenzyl)oxy)phenyl)acrylate]	52	55	96	100	−0.24 ± 0.009	–
O=c1ccc2ccc(O)cc2o1 [Compound 7-HC, 7-hydroxycoumarin, reference compound]	–	–	92	100	–	–
CC(=O)Nc1cccc(OC(=O)/C=C/c2cccc(Oc3ccccc3)c2)c1 [Compound 2e, 3-Acetamidophenyl (E)-3-(3-phenoxyphenyl)acrylate]	98.1	–	60	–	0.407 ± 0.015	% ANA (in vivo analgesic-antinociceptive activity) ([2]; 0.01 mmol/0.1 kg): 98.1 ** %; IC50 [3, 7]: 0.34 µM
Nc1ccc(O)cc1 [p-AP, p-aminophenol, reference compound]	–	–	99	–	–	% Trypsin Inh. [1]: 87%
O=C(/C=C/c1cccc(Oc2ccccc2)c1)Nc1ccc(O)cc1 [Compound 2f, (E)-N-(4-Hydroxyphenyl)-3-(3-phenoxyphenyl)acrylamide]	–	–	100	26	−0.116 ± 0.003	IC50 μM LOX Inh. [3, 8]: low or no activity
Nc1cccc(O)c1 [m-AP, m-aminophenol, reference compound]	–	–	95	–	–	% Trypsin Inh. [1]: 90%
CC(=O)Nc1ccc(OC(=O)/C=C/c2cccs2)cc1 [Compound 4a, (E)-4-Acetamidophenyl 3-(thiophen-2-yl)acrylate]	–	–	95	–	−0.826 ± 0.05	inhibition at 100 µM [3]: 16%; IC50 μM LOX Inh. [3, 8]: low or no activity; IC50 μM Trypsin Inh. [1, 6]: low or no activity
Cc1cc(=O)oc2cc(O)ccc12 [Hymechromone, 4-methyl-7-hydroxycoumarin, reference compound]	–	–	93	–	–	inhibition at 100 µM [1]: 60%
Cc1cc(=O)oc2cc(OC(=O)/C=C/c3cccc(Oc4ccccc4)c3)ccc12 [Compound 2d, (E)-4-Methyl-2-oxo-2H-chromen-7-yl 3-(3-phenoxyphenyl)acrylate]	66	74	97	10	0.558 ± 0.040	–
O=C(/C=C/c1cccc(Oc2ccccc2)c1)Nc1cccc(OC(=O)/C=C/c2cccc(Oc3ccccc3)c2)c1 [Compound 2g]	–	72	60	43.6	1.092 ± 0.044	–
CCOC(=O)c1ccc(N)cc1 [Benzocaine, reference compound]	–	–	25	–	–	inhibition at 100 µM [1]: 28%
CC(=O)Nc1ccc(OC(=O)/C=C/c2ccccc2)cc1 [Compound 1a, (E) 4-Acetamidophenyl cinnamate]	77.3	–	95	–	−0.725 ± 0.009	IC50 [3, 7]: 10 µM; inhibition at 100 µM [1]: 34%
O=C(O)/C=C/c1ccccc1 [I]	60.2	56	78	55	−0.485 ± 0.044	–
Cc1c(C)c2c(c(C)c1O)CCC(C)(C(=O)O)O2 (stereo not shown) [Trolox, reference compound]	–	–	63	–	–	–
Cc1cc(=O)oc2cc(OC(=O)/C=C/c3ccc(OCc4ccc(Br)cc4)cc3)ccc12 [Compound 3b, (E)-4-Methyl-2-oxo-2H-chromen-7-yl-3-(4-((4-bromobenzyl)oxy)phenyl)acrylate]	–	50	90	5	−0.602 ± 0.01	–
CCOC(=O)c1ccc(NC(=O)/C=C/c2cccc(Oc3ccccc3)c2)cc1 [Compound 2h, (E)-Ethyl 4-(3-(3-phenoxyphenyl)acrylamido)benzoate]	–	100	64	50	0.399 ± 0.045	–
O=C(/C=C/c1cccc(Oc2ccccc2)c1)Oc1ccc2ccc(=O)oc2c1 [Compound 2c, (E)-2-Oxo-2H-chromen-7-yl 3-(3-phenoxyphenyl)acrylate]	70.4	–	93	10	0.444 ±0.008	inhibition at 100 µM [3]: 20%; IC50 μM LOX Inh. [3, 8]: low or no activity

Source: publication PMC6271731, “Multitarget Molecular Hybrids of Cinnamic Acids” (Molecules, 2014)
